In the supplement of paper PMC6723410:

system: GUMC-403; assay: viability at highest tested concentration (max response) relative to DMSO (% of DMSO control); higher = less cytotoxic; details: library / dose series: MIPE library, 11-point 1:3 dilution; top concentration 4.61 µM; 48 h
Outline: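 Patient-derived GUMC-403 papilloma cells grown by conditional reprogramming were plated at 700/well in 5 μL F + Y medium in 1536-well plates and incubated overnight at 37 °C. They then received 23 nL of MIPE 4.0 compounds by pin tool (11-point 1:3 series) for 48 h. CellTiter-Glo luminescence was read on a ViewLux and normalised with DMSO wells as 100% and empty wells as 0%. The value is viability at the highest tested concentration relative to DMSO control.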

For `CC(C)(C)[C@H](NC(=O)c1ccc(N)c(Cl)c1)C(=O)N1CCC[C@H]1C(=O)N[C@H](C#N)CC(=O)O`, the viability was 131.

same assay, conditions: library / dose series: MIPE library, 11-point 1:3 dilution; top concentration 46.1 µM; 48 h

In order of rising viability:
1. C#Cc1cccc(Nc2ncnc3cc(OCCOC)c(OCCO)cc23)c1  47.5
2. CCn1cc(-c2ccnc3[nH]c(-c4cccc(CN(C)C)c4)cc23)c(-c2ccc(NC(=O)N(C)C)cc2)n1  54.6
3. CC(C)c1c(C(=O)Nc2ccccc2)c(-c2ccccc2)c(-c2ccc(F)cc2)n1CC[C@@H](O)C[C@@H](O)CC(=O)[O-]  70.3
4. Nc1ncnc2c1c(-c1cccc(OCc3ccccc3)c1)cn2C1CC(CN2CCCC2)C1 (configuration not stated)  78.1
5. COc1cc(C(=O)N2CCC(N3CCN(C)CC3)CC2)ccc1Nc1ncc2c(n1)N(C)c1ccccc1C(=O)N2C  78.9
6. COc1cc(CCc2cc(NC(=O)c3ccc(N4C[C@@H](C)N[C@@H](C)C4)cc3)n[nH]2)cc(OC)c1  81.8
7. CCOC(=O)Nc1ccc(NCc2ccc(F)cc2)cc1N  81.8
8. OC[C@H]1O[C@H](C[C@@H]1O)[N]2C=NC3=C2\N=C/NC[C@H]3O  83.1
9. COC1=CC2=NC=CC(=C2C=C1)OC3=CN=C(NC(=O)C/4=C(C)/N(CC(C)(C)O)N(C4=O)C5=CC=CC=C5)C=C3  84.6
10. O=C(c1ccc(/C=C/c2n[nH]c3ccccc23)cc1)N1CCNCC1  86.5
11. Cc1ccc(C(=O)Nc2cccc(C(F)(F)F)c2)cc1Nc1nc(-c2cccnc2)nc2c1cnn2C  87.4
12. Nc1cc(N2CCCCC2)nc(N)[n+]1[O-]  91.1
13. Cc1ccc([S+](=O)([O-])OCC(=O)Nc2ccc(C(=O)O)c(O)c2)cc1  91.4
14. O=C(CCCN1CCN(c2ccc(F)cc2)CC1)NC1c2ccccc2CSc2ccccc21 (configuration not stated)  93.5
15. OCc1ccc(-c2nn(Cc3ccccc3)c3ccccc23)o1  94.3
16. OC(c1cc(C(F)(F)F)nc2c(C(F)(F)F)cccc12)C1CCCCN1 (configuration not stated)  97.9
17. C[C@@H]1[C@H]\2[C@H](O)[C@H]3[C@H](N(C)C)\C(=C(C(N)=O)/C(=O)[C@@]3(O)\C(=C2C(=O)C4=C(O)C=CC=C14)O)O  98.3
18. NC(=O)c1ncn([C@@H]2O[C@H](CO)[C@@H](O)[C@H]2O)n1  99.6
19. N#C/C(C(=O)c1ccc(Cl)cc1Cl)=C1/NC(=O)c2ccc(Cl)cc2N1  100
20. C[C@@H]1C(=O)O[C@H]2CC34[C@H]5C[C@@H](C(C)(C)C)C36[C@@H](OC(=O)[C@@H]6O)O[C@@]4(C(=O)O5)[C@]21O (some centres not stated)  101
21. Cc1cc(C(=O)N2CCN(c3cccc(Cl)c3)CC2)n(-c2ccccc2)n1  101
22. CC[C@H]1OC(=O)[C@H](C)C(=O)[C@H](C)[C@@H](O[C@H]2O[C@H](C)C[C@H](N(C)C)[C@H]2O)[C@](C)(OC)C[C@@H](C)C(=O)[C@H](C)[C@H]2N(CCCCn3cnc(-c4cccnc4)c3)C(=O)O[C@]12C  102
23. O=c1oc2cc(O)ccc2s1  102
24. S=C1N\C=N/C2=C1[NH]C=N2  103
25. Cc1cc(O)c2c3c4c(cc(O)c13)C(C)(C)C(=O)c1c(O)cc(O)c(c1-4)C2=O  104
26. CO[C@H]1C[C@@H]2CC[C@@H](C)[C@@](O)(O2)C(=O)C(=O)N2CCCC[C@H]2C(=O)O[C@H]([C@H](C)C[C@@H]2CC[C@@H](OP(C)(C)=O)[C@H](OC)C2)CC(=O)[C@H](C)/C=C(\C)[C@@H](O)[C@@H](OC)C(=O)[C@H](C)C[C@H](C)/C=C/C=C/C=C/1C  104
27. COC(=O)N1CCN(Cc2cccc(NC(=O)Nc3ccc(C)nc3)c2F)CC1  105
28. C[C@H]1COC2=C3N1\C=C(C(O)=O)/C(=O)C3=CC(=C2N4CCN(C)CC4)F  105
29. O=c1cc(O)c(Cl)c[nH]1  106
30. O=C(NCC[S+](=O)([O-])c1ccc(C(F)(F)F)cn1)c1ccc(Cl)cc1  107
31. Nc1c2c(nc3ccccc13)CCCC2  107
32. N[C@@H]1C[C@H]1c1ccccc1  108
33. Cc1c(C(=O)Nc2ccc(N3C[C@@H](C)O[C@@H](C)C3)nc2)cccc1-c1ccc(OC(F)(F)F)cc1  109
34. CN1CCN(C2=Nc3cc(Cl)ccc3Nc3ccccc32)CC1  109
35. CCNC(=O)CCC/C=C\C[C@@H]1[C@@H](/C=C/C(O)CCc2ccccc2)[C@@H](O)C[C@@H]1O (some centres not stated)  109
36. CC(=O)OC[C@@H]1O[C@H]([C@H](OC(C)=O)[C@@H]1OC(C)=O)N2\C=C/C(=O)NC2=O  110
37. CCCCC(F)(F)[C@@]1(O)CC[C@H]2[C@@H](CC(=O)[C@@H]2CCCCCCC(=O)O)O1  110
38. Cc1ncc([N+](=O)[O-])n1CC(C)O (configuration not stated)  110
39. COc1ccc2c(c1)c(CC(=O)O)c(C)n2C(=O)c1ccc(Cl)cc1  111
40. O=C/1\C=C(/OC(=C1)/C2=C3SC4=C(SC3=CC=C2)C=CC=C4)N5CCOCC5  111
41. COc1cccc2c1CCCC2CCCN1CCN(C2CCCCC2)CC1 (configuration not stated)  112
42. C[C@@H]1CC[C@@]2(OC1)O[C@H]3C[C@H]4[C@@H]5C/C=C6/C[C@H](CC[C@]6(C)[C@H]5CC[C@]4(C)[C@H]3[C@@H]2C)O[C@@H]7O[C@H](CO)[C@@H](O[C@@H]8O[C@@H](C)[C@H](O)[C@@H](O)[C@H]8O)[C@H](O)[C@H]7O[C@@H]9O[C@@H](C)[C@H](O)[C@@H](O)[C@H]9O  112
43. COc1ccc(-c2ccc3cc(C(=O)O)ccc3c2)cc1C12CC3CC(CC(C3)C1)C2  112
44. O=C(Nc1cccnc1)N1CCC(Cc2cccc(Oc3ccc(C(F)(F)F)cn3)c2)CC1  112
45. O=C(/C=C/C=C/c1ccc2c(c1)OCO2)N1CCCCC1  114
46. COc1cc(/C=C/C(=O)O)ccc1O  115
47. Cc1coc2c1C(=O)C(=O)c1c-2ccc2c(C)cccc12  115
48. CCOc1ccccc1N/N=C1/C(=O)N(c2nc(-c3ccccc3)cs2)N=C1C  115
49. CC(C)c1ccc2c(c1)c(SC(C)(C)C)c(CC(C)(C)C(=O)[O-])n2Cc1ccc(Cl)cc1  115
50. CCCOc1ccc(C(=O)OCCN(CC)CC)cc1N  115
51. NC(=O)c1noc([C@H](CCCC2CCCCC2)CC(=O)NO)n1  118
52. C[C@]12CC[C@H]3[C@@H](CCC4=CC(=O)CC[C@@H]43)[C@@H]1CC[C@@H]2OC(=O)CCc1ccccc1  118
53. CC(=O)CC(C1=CC=CC=C1)C/2=C(O)/C3=CC=CC=C3OC2=O (configuration not stated)  118
54. CC(C)(O)[C@H]1CC[C@@](C)([C@H]2[C@@H](O)C[C@@]3(C)[C@@H]4C[C@H](O[C@@H]5O[C@H](CO)[C@@H](O)[C@H](O)[C@H]5O)[C@H]5C(C)(C)[C@@H](O[C@@H]6OC[C@@H](O)[C@H](O)[C@H]6O)CC[C@@]56C[C@@]46CC[C@]23C)O1  119
55. COC1=C(N2CCNC(C)C2)C(=CC3=C1N(\C=C(C(O)=O)/C3=O)C4CC4)F (configuration not stated)  120
56. CN(C)CCOC(c1ccccc1)c1ccccc1  120
57. Cc1ccnc(N[S+](=O)([O-])c2ccc(NC(=O)Nc3ccc([S+](=O)([O-])Nc4nccc(C)n4)cc3)cc2)n1  121
58. CC1(C)CC(O)CC(C)(C)N1[O]  121
59. COC1=CC=C(C(=C1)OC(C)C)C/2=N/[C@@H]([C@@H](N2C(=O)N3CCNC(=O)C3)C4=CC=C(Cl)C=C4)C5=CC=C(Cl)C=C5  121
60. CCN1C[C@H](C)[N]2C(=C(O)C3=C2\C(=N/N(CC4=CC=C(F)C(=C4)Cl)C3=O)C(=O)NC)C1=O  123
61. CC(C)NCC(O)c1ccc(NS(C)(=O)=O)cc1 (configuration not stated)  123
62. Cc1ccc(C(=O)Nc2ccc([S+](=O)([O-])O)c3cc([S+](=O)([O-])O)cc([S+](=O)([O-])O)c23)cc1NC(=O)c1cccc(NC(=O)Nc2cccc(C(=O)Nc3cc(C(=O)Nc4ccc([S+](=O)([O-])O)c5cc([S+](=O)([O-])O)cc([S+](=O)([O-])O)c45)ccc3C)c2)c1  123
63. C[C@]12CC[C@@H]3c4ccc(OC(=O)N(CCCl)CCCl)cc4CC[C@H]3[C@@H]1CC[C@@H]2OP(=O)([O-])[O-].[Na+].[Na+]  124
64. CC1(C)S[C@H]2[C@H](NC(=O)[C@@H](N)C3=CC=C(O)C=C3)C(=O)[N@]2[C@H]1C(O)=O  124
65. O=C(C1CC1)N1CC[C@@H](Cn2c(-c3ccc(-c4ccc5occc5c4)cc3)nc3cnccc32)C1  124
66. O=NN(CCCl)C(=O)NC1CCCCC1  124
67. CCC(C)CCCCC(=O)N[C@@H](CCN)C(=O)NC(C(=O)N[C@H](CCN)C(=O)N[C@@H]1CCNC(=O)C([C@@H](C)O)NC(=O)[C@@H](CCN)NC(=O)[C@@H](CCN)NC(=O)[C@@H](CC(C)C)NC(=O)[C@H](Cc2ccccc2)NC(=O)[C@H](CCN)NC1=O)[C@@H](C)O (some centres not stated)  126
68. C/C(=C\C(=O)Nc1ccccc1C(=O)O)c1ccc2ccccc2c1  127
69. CC(=O)N[C@@H]1[C@@H](NC(N)=N)\C=C(/O[C@H]1[C@H](O)[C@H](O)CO)C(O)=O  129
70. NC(=O)c1cnccn1  131
71. Cc1cc(SCc2sc(-c3ccc(C(F)(F)F)cc3)nc2C)ccc1OCC(=O)O  133
72. CC(S)C(=O)NCC(=O)O (configuration not stated)  135
73. CNC[C@H](O)c1cccc(O)c1  139
74. COc1ccc(-n2nc(C(N)=O)c3c2C(=O)N(c2ccc(N4CCCCC4=O)cc2)CC3)cc1  146

same assay, conditions: library / dose series: MIPE library, 11-point 1:3 dilution; top concentration 92.2 µM; 48 h

In order of rising viability:
1. Cc1cn([C@H]2C=C[C@@H](CO)O2)c(=O)[nH]c1=O  92.2
2. Nc1cccc2c1CN([C@H]1CCC(=O)NC1=O)C2=O  106
